{"source": "patent US4127722A", "about": "“Benzhydrylsulphinyl derivatives” (Laboratoire L. Lafon, priority 1975, dated 1978)", "key": {"[1]": {"tested_on": "stereotype behaviour induced by amphetamine", "test": "Interaction with amphetamine", "type": "in vivo, rats", "protocol": "Amphetamine (2 mg/kg, given intraperitoneally) is injected 30 minutes after the administration of CRL 40,028 (6 rats/dose)."}, "passes which entail pain": {"tested_on": "passes which entail pain", "test": "Four plate test", "type": "in vivo, mice", "conditions": "mice", "protocol": "(§1) The test is carried out on batches of 20 mice, 30 minutes after the administration of CRL 40,028."}, "mice [2]": {"tested_on": "mice", "test": "Toxicity, intraperitoneal administration, mice", "type": "in vivo", "conditions": "i.p., 256 mg/kg, 512 mg/kg and 1,024 mg/kg"}, "[3]": {"test": "Toxicity, intraperitoneal administration, mice", "type": "in vivo", "conditions": "mouse, in vivo, ip, intraperitoneal administration"}, "[4]": {"test": "Toxicity, gastric administration, mice", "conditions": "mouse, in vivo, po"}, "spontaneous motility": {"tested_on": "spontaneous motility", "test": "Spontaneous motility (actimetry)", "type": "in vivo, mice", "conditions": "for % relative to the control animals / % variation: rays crossed", "protocol": "CRL 40,028 increases the motor activity of the animals from a dose of 16 mg/kg onwards. As this effect is representative of the activity of CRL 40,028, attempts have been made to obtain its kinetics more precisely. […]"}, "[5]": {"tested_on": "motor activity after anoxia", "test": "Motor recovery after hypoxia aggression", "type": "in vivo, mice"}, "groups of mice": {"tested_on": "groups of mice", "test": "Group toxicity", "conditions": "in words, comparison with amphetamine-type compounds"}, "[6]": {"tested_on": "convulsive effects of the electric shock", "test": "Electric shock", "type": "in vivo, mice", "protocol": "as §1"}, "[7]": {"test": "General behaviour / psychopharmacological spectrum (species not stated)", "type": "in vivo"}, "central nervous system": {"tested_on": "central nervous system", "test": "Pharmacological tests: action on the central nervous system, overall profile", "type": "in vivo", "protocol": "The results of the pharmacological tests which were carried out have been summarised below."}, "mice [8]": {"tested_on": "mice", "test": "General behaviour, mice", "type": "in vivo", "conditions": "at all the doses studied (toxicity test)"}, "[9]": {"tested_on": "hypothermia, trembling and peripheral cholinergic symptoms brought about by oxotremorine", "test": "Interaction with oxotremorine", "type": "in vivo, mice", "protocol": "Mice (6 per dose) are given an intraperitoneal injection of 0.5 mg/kg of oxotremorine 30 minutes after the administration of CRL 40,028."}, "residual motility": {"tested_on": "residual motility", "test": "Residual motility", "type": "in vivo, mice", "conditions": "animals becoming accustomed to the chamber"}, "[10]": {"tested_on": "hypothermia and ptosis produced by reserpine", "test": "Interaction with reserpine", "type": "in vivo, mice", "protocol": "Batches of 6 mice are given an intraperitoneal injection of reserpine (2.5 mg/kg) 4 hours before the administration of CRL 40,028."}, "[11]": {"tested_on": "stereotype behaviour caused by apomorphine", "test": "Interaction with apomorphine", "type": "in vivo, rats", "protocol": "Batches of 6 rats are given CRL 40,028 30 minutes after the subcutaneous injection of 0.5 mg/kg of apomorphine."}, "carrageenin oedema": {"tested_on": "carrageenin oedema", "test": "Carrageenin oedema", "type": "in vivo"}}, "note": "“Also recorded” adds a separate entry of the source. Where a name gives a salt, the structure may show the parent alone."}
{"smiles": "O=C(C[S+]([O-])C(c1ccccc1)c1ccccc1)NO", "note": "(stereo not shown) [CRL 40,028, benzhydrylsulphinylacetohydroxamic acid]", "values": [{"measurement": "Boosting action on amphetamine", "setting": "[1]; Table IV, graded symbols", "result": 0}, {"measurement": "boosting of the effect of amphetamine", "setting": "[1]; in words", "result": "does not boost the action of amphetamine; also recorded: absence of boosting"}, {"measurement": "effect on stereotype behaviour induced by amphetamine", "setting": "[1]; rats, amphetamine 2 mg/kg i.p.", "result": "does not produce an overall change in the stereotype behaviour induced by amphetamine"}, {"measurement": "number of passes which entail pain", "setting": "passes which entail pain; 4.1 mg/kg", "result": "a modest decrease in the number of such passes"}, {"measurement": "number of passes which entail pain", "setting": "passes which entail pain; 256 and 64 mg/kg", "result": "an increase in the number of passes which entail pain"}, {"measurement": "decrease in motility", "setting": "passes which entail pain; at no dose", "result": "At no dose does CRL 40,028 bring about a major decrease in motility"}, {"measurement": "mortality", "setting": "mice [2]", "result": "no mortality was observed"}, {"measurement": "LD50", "setting": "[3]", "result": "≤ 2050", "unit": "mg/kg"}, {"measurement": "LD50", "setting": "[4]", "result": 1950, "unit": "mg/kg"}, {"measurement": "minimal effective dose", "setting": "spontaneous motility; Mus musculus, spontaneous motility, read-out: dose from which motor activity is increased", "result": "≥ 16", "unit": "mg/kg"}, {"measurement": "time in which hypermotility appears", "setting": "spontaneous motility; mice, 64 mg/kg", "result": "less than 30 minutes"}, {"measurement": "time in which hypermotility disappears", "setting": "spontaneous motility; mice, 64 mg/kg", "result": 4, "unit": "h"}, {"measurement": "time of maximum hypermotility", "setting": "spontaneous motility; mice, 64 mg/kg", "result": "one"}, {"measurement": "Number of rays crossed in 30 minutes", "setting": "spontaneous motility; mice, 64 mg/kg, - 30 mins", "result": 311}, {"measurement": "Number of rays crossed in 30 minutes", "setting": "spontaneous motility; mice, 64 mg/kg, - 1 hr", "result": 424}, {"measurement": "Number of rays crossed in 30 minutes", "setting": "spontaneous motility; mice, 64 mg/kg, - 2 hrs", "result": 376}, {"measurement": "Number of rays crossed in 30 minutes", "setting": "spontaneous motility; mice, 64 mg/kg, - 4 hrs", "result": 234}, {"measurement": "% relative to the control animals", "setting": "spontaneous motility; mice, 64 mg/kg, - 30 mins", "result": 155, "unit": "%"}, {"measurement": "% variation", "setting": "spontaneous motility; mice, 64 mg/kg, - 30 mins", "result": "+55%"}, {"measurement": "% relative to the control animals", "setting": "spontaneous motility; mice, 64 mg/kg, - 1 hr", "result": 212, "unit": "%"}, {"measurement": "% variation", "setting": "spontaneous motility; mice, 64 mg/kg, - 1 hr", "result": "+112%"}, {"measurement": "% relative to the control animals", "setting": "spontaneous motility; mice, 64 mg/kg, - 2 hrs", "result": 188, "unit": "%"}, {"measurement": "% variation", "setting": "spontaneous motility; mice, 64 mg/kg, - 2 hrs", "result": "+88%"}, {"measurement": "% relative to the control animals", "setting": "spontaneous motility; mice, 64 mg/kg, - 4 hrs", "result": 117, "unit": "%"}, {"measurement": "% variation", "setting": "spontaneous motility; mice, 64 mg/kg, - 4 hrs", "result": "+17%"}, {"measurement": "aggravation of the effects of hypoxia", "setting": "[5]; comparison with caffeine", "result": "absence of an aggravation"}, {"measurement": "motor activity after anoxia", "setting": "[5]; mice, 512, 128 and 32 mg/kg, vs control animals", "result": "markedly greater motor activity than that of the control animals"}, {"measurement": "toxicity in the groups of mice", "setting": "groups of mice", "result": "virtual absence of specific (?) toxicity"}, {"measurement": "solubility", "setting": "Solubility in water", "result": "< 1000", "unit": "µg/mL"}, {"measurement": "aggravation of the effects of electric shock", "setting": "[6]; comparison with caffeine", "result": "absence of an aggravation"}, {"measurement": "antagonism against convulsive effects of the electric shock", "setting": "[6]; mice, only at 256 mg/kg", "result": "a very moderate antagonism"}, {"measurement": "stereotypies", "setting": "[7]; Table IV, graded symbols", "result": 0}, {"measurement": "stimulant properties (overall)", "setting": "[7]; animal psychopharmacology", "result": "stimulant properties, namely causing excitation and hyper-reactivity, and hypermotility"}, {"measurement": "stereotypies", "setting": "[7]; in words, comparison with amphetamine-type compounds", "result": "absence of stereotypies"}, {"measurement": "psychostimulant profile", "setting": "central nervous system; comparison with amphetamine and caffeine", "result": "a psychostimulant which comes closer to caffeine"}, {"measurement": "excitation of the animal", "setting": "mice [8]", "result": "excitation of the animal was observed"}, {"measurement": "Anti-oxotremorine action (peripheral)", "setting": "[9]; Table IV, graded symbols", "result": 0}, {"measurement": "effect on hypothermic effect of oxotremorine", "setting": "[9]; mice, 64 mg/kg", "result": "not"}, {"measurement": "effect on hypothermic effect of oxotremorine", "setting": "[9]; mice, 256, 16 and 4 mg/kg", "result": "moderately opposes the hypothermic effect of oxotremorine"}, {"measurement": "effect on trembling brought about by oxotremorine", "setting": "[9]; mice, at all the doses", "result": "moderately reduces"}, {"measurement": "effect on peripheral cholinergic symptoms (salivation, lachrymation, defaecation)", "setting": "[9]; mice, oxotremorine 0.5 mg/kg i.p.", "result": "does not alter the increase in salivation, lachrymation and defaecation"}, {"measurement": "effect on residual motility", "setting": "residual motility", "result": "stimulating effect"}, {"measurement": "Anti-reserpine action (ptosis)", "setting": "[10]; Table IV, graded symbols", "result": 0}, {"measurement": "anti-reserpine effect", "setting": "[10]; in words", "result": "absence of a marked antagonism to reserpine"}, {"measurement": "hypothermia due to reserpine", "setting": "[10]; in words", "result": "absence of a marked antagonism to hypothermia brought about by reserpine"}, {"measurement": "effect on hypothermic effect of reserpine", "setting": "[10]; mice, 256 and 64 mg/kg, reserpine 2.5 mg/kg i.p.", "result": "partially counteracts the hypothermic effect of reserpine"}, {"measurement": "effect on ptosis produced by reserpine", "setting": "[10]; mice, reserpine 2.5 mg/kg i.p.", "result": "does not resolve the palpebral ptosis"}, {"measurement": "Boosting action on apomorphine", "setting": "[11]; Table IV, graded symbols", "result": 0}, {"measurement": "boosting of the effect of apomorphine", "setting": "[11]; in words, comparison with amphetamine / caffeine", "result": "absence of boosting of the effect of apomorphine"}, {"measurement": "activity on the stereotype behaviour caused by apomorphine", "setting": "[11]; rats, apomorphine 0.5 mg/kg s.c.", "result": "does not exert any activity"}]}
{"smiles": "[O-][S+](CCC1=NCCN1)C(c1ccccc1)c1ccccc1", "note": "(stereo not shown) [CRL 40,066, 2-(2-Benzhydrylsulphinyl-ether)-imidazoline hydrochloride]", "values": [{"measurement": "anti-oedema effect", "setting": "carrageenin oedema", "result": "an anti-oedema effect"}, {"measurement": "action on the central nervous system", "setting": "central nervous system; in words", "result": "an effect on the central nervous system"}]}
